Laboratory results reported in PubChem BioAssay (NCI).
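Exposure lasted 48 hours, with cells grown in 96-well plates and compounds tested at five concentrations. GI50 = concentration required for 50% inhibition of growth. TGI denotes the concentration required for complete inhibition of growth.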

What was measured:
Assay in all cases: DTP human tumour cell line panel, 48 h
[1] = tested on: SN12C renal
[2] = tested on: MALME-3M melanoma
[3] = tested on: PC-3 prostate
[4] = tested on: UACC-257 melanoma
[5] = tested on: CCRF-CEM leukemia
[6] = tested on: OVCAR-5 ovarian
[7] = tested on: SW-620 colon
[8] = tested on: 786-0 renal
[9] = tested on: COLO 205 colon
[10] = tested on: KM20L2 colon
[11] = tested on: DMS 114 small cell lung
[12] = tested on: SNB-78 CNS
[13] = tested on: MCF7 breast

SMILES | TGI [1] | TGI [2] | TGI [3] | TGI [4] | TGI [5] | TGI [6] | TGI [7] | TGI [8] | TGI [9] | TGI [10] | TGI [11] | TGI [12] | TGI [13] | GI50 [5] | GI50 [10] | GI50 [12] | GI50 [3] | GI50 [4] | GI50 [6] | GI50 [7]
c1ccc(SC(Sc2ccccc2)c2ccc3c(c2)OCO3)cc1 | > 100 µM | > 100 µM | > 100 µM | > 100 µM | > 100 µM | > 100 µM | > 100 µM | > 100 µM |  |  |  |  |  |  |  |  |  |  |  | 
COc1cccc(C2C(C(=O)O)=C(CO)Oc3cc4c(cc32)OCO4)c1 (stereo not given) | > 100 µM | > 100 µM |  |  | > 100 µM |  | > 100 µM |  | > 100 µM | > 100 µM | > 100 µM | > 100 µM |  |  |  |  |  |  |  | 
O=NNc1cnccn1 | > 1250 µM | > 1250 µM | > 1250 µM | > 1250 µM | > 1250 µM | > 1250 µM | > 1250 µM | > 1250 µM | > 1250 µM | > 1250 µM | > 1250 µM | > 1250 µM | 1240 µM |  |  |  |  |  |  | 
O=C(O)c1cncc(C(=O)O)c1 | > 100 µM | > 100 µM | > 100 µM | > 100 µM | > 100 µM | > 100 µM | > 100 µM | > 100 µM | > 100 µM |  |  |  | > 100 µM |  |  |  |  |  |  | 
O=C(O)/C=C/c1cnc[nH]1 | > 500 µM | > 500 µM |  | > 500 µM | > 500 µM | > 500 µM | > 500 µM |  | > 500 µM | > 500 µM | > 500 µM | > 500 µM | > 500 µM | > 500 µM | > 500 µM | > 500 µM |  |  |  | 
C=C(CN(C)C)C(=O)c1cc(C)ccc1C | 42.6 µM | 7.77 µM | 28.2 µM | 26 µM | 1.37 µM | 31.2 µM | 5.96 µM | 11.4 µM | 3.53 µM | 61.2 µM | 21.4 µM | 81.5 µM | 11.5 µM |  |  |  |  |  |  | 
O=C(N1CCC(CN=c2cc3n(-c4ccc(Cl)cc4)c4ccccc4nc-3cc2Nc2ccc(Cl)cc2)CC1)N1CC1 |  |  | 3.38 µM | 1.89 µM | 1.15 µM | 3.39 µM | 2.05 µM |  |  |  |  |  |  | 0.253 µM |  |  | 1.63 µM | 0.605 µM | 1.85 µM | 0.709 µM
COc1ccc2c(c1)O[C@H]1c3ccc(O)cc3OC[C@@H]21 | > 100 µM | > 100 µM |  | 52.5 µM | 65.8 µM | > 100 µM | > 100 µM |  | 57 µM | > 100 µM |  | > 100 µM |  |  |  |  |  |  |  | 
CCOC(=O)C1(C(=O)OCC)CSC1 | > 100 µM |  | > 100 µM | > 100 µM | > 100 µM |  | > 100 µM |  | > 100 µM |  |  |  | > 100 µM |  |  |  |  |  |  | 
NC(CCCNc1cccc(O)c1)C(=O)O (stereo not given) | > 100 µM | > 100 µM |  | > 100 µM | > 100 µM | > 100 µM | > 100 µM | > 100 µM | > 100 µM | > 100 µM | > 100 µM | > 100 µM |  |  |  |  |  |  |  | 
COc1ccc2c[n+](C)c3c4cc(OC)c(OC)cc4ccc3c2c1 | 12.6 µM | 42 µM | 16.2 µM | 57.6 µM | 31.2 µM | 34.4 µM | 16.4 µM | 15.5 µM | 5.49 µM | 29.7 µM | 4.16 µM | 33.5 µM | > 100 µM |  |  |  |  |  |  | 
COC(=O)C1=COC2OC3/C(=C\c4ccc(O)c(OC)c4)C(=O)OC34C=CC1C24 (stereo not given) | 35.1 µM | 31 µM |  | 32.5 µM | 49.2 µM | 32.6 µM | 35.9 µM |  | 43.8 µM | 33.6 µM | 39.5 µM | 39.4 µM |  |  |  |  |  |  |  | 
CCOc1ccc(N=Nc2ccc3oc(=O)c(/C(C)=N\NC(=O)CC(=O)Nc4ccc(Cl)cc4)cc3c2)cc1 | 81.1 µM | 30.3 µM |  |  | 11.4 µM | > 100 µM | 38.8 µM |  | > 100 µM | > 100 µM | 42 µM | > 100 µM |  |  |  |  |  |  |  | 
